Source: patent EP0222578A2, “Use of cyclic somatostatin analogues in the treatment of immediate hypersensitivity diseases” (Merck & Co., Inc., priority 1985, dated 1987)

How the values were obtained:
[1] = tested on: Antigen-Induced Dyspnea in Inbred Rats; assay: Antigen-induced dyspnea in sensitized inbred asthmatic rats challenged with aerosolized egg albumin; assay type: in vivo; conditions: for Duration of Dyspnea in Minutes (Mean±S.D.) n=6/group: 1 mg/kg s.c. 1 hour before antigen challenge; for Inhibition %: inhibition of duration of dyspnea vs vehicle control, 1 mg/kg s.c. 1 hour
Excerpt: Sensitized inbred "asthmatic rats" challenged with aerosolized antigen respond with symptoms of continuous dyspnea which is partly mediated by serotonin. […] These rats differed from normal rats in that they have nonspecific bronchial hyperreactivity to a number of bronchoconstrictor agents (Brunet et al., J. Immun., 131, 434-438 (1983)].
• (1) Animals: Rats were obtained from an inbred line of asthmatic rats that were developed and maintained in local laboratories and later at a local farm. Male and female rats were used between 10-12 weeks of age. Their weights ranged from 220-240 gm (females) and 350-400 gm (males). Rats were matched by sex and littermates between the various treatment groups. • (2) Materials: Egg albumin (EA), grade V, crystallized and lyophilized (Sigma Chemical Co., St. Louis), aluminum hydroxide (Reheis Chemical Company, Chicago), and methysergide bimaleate (Sandoz Ltd., Basel, Switzerland). • (3) Apparatus: The challenge and subsequent respiratory recordings were carried out in a clear plastic box with internal dimensions 10 x 6 x 4 inches. The top of the box was removable; in use, it was held firmly in place by four clamps and an airtight seal was maintained by a soft rubber gasket. Through the centre of each end of the chamber a Devilbiss nebulizer (No. 40) was inserted via an airtight seal and each end of the box was also equipped with an outlet. A Fleisch No. 0000 pneumotachograph was inserted into one end of the box and coupled to a Grass volumetric pressure transducer (PT5-A) which was then connected to a Beckman Type R Dynograph through appropriate couplers. While aerosolizing the antigen, the outlets were open and the pneumotachograph was isolated from the chamber. The outlets were closed and the pneumotachograph and the chamber were connected during the recordings of the respiratory patterns. For challenge, 2 ml of 3% solution of antigen in saline was placed into each nebulizer and the aerosol was generated with air from a small Potter diaphragm pump operating at 10 psi and a flow of 8 litre/minute. • (4) Procedure: Rats were sensitized by injecting (s.c.) 1 ml of suspension containing 1 mg egg albumin (EA) and 200 mg aluminum hydroxide in saline. They were used on day 13 post sensitization. Rats were exposed to aerosol of 3% EA in saline for exatly 1 minute, then their respiratory profiles were recorded for an additional 30 minutes. The duration of continuous dyspnea was measured from the respiratory recordings.
Form.I-8) was administered subcutaneously as a solution in 5% mannitol 1 hour prior to challenge with antigen. Methysergide bimaleate was dissolved in saline and given intravenously at dose of 3 ug/kg 5 minutes before challenge. Dose volume employed for subcutaneous treatments was 2 ml/kg and for i.v. treatments 1 ml/kg. Control groups of rats (n-6) were treated subcutaneously with drug vehicle (5% mannitol).
The sensitivity of various drug treatments were determined in terms of the decrease in duration of dyspnea in comparison with a group of vehicle- treated controls. Comparisons between groups were made using the Student's t-test.

[2] = tested on: Antigen-Induced Dyspnea in Inbred Rats; conditions: 3 µg/kg i.v. before challenge; background statement in the introduction; cited from earlier work

| Structure (SMILES) | Duration of Dyspnea in Minutes (Mean±S.D.) n=6/group ([1]; + Methysergide (3 µg/kg i.v. 5 minutes prior to challenge)) | Duration of Dyspnea in Minutes (Mean±S.D.) n=6/group ([1]; - Methysergide) | activity on duration of antigen-induced dyspnea ([1]; 1 mg/kg s.c., without methysergide to block the serotonin component) | Inhibition % ([1]; + Methysergide (3 µg/kg i.v. 5 minutes prior to challenge), p < 0.01) | Inhibition % ([1]; + Methysergide (3 µg/kg i.v. 5 minutes prior to challenge); p < 0.01; listed as Form.1-8)) | Inhibition % ([1]; - Methysergide) | serotonin component of continuous dyspnea [2] |
| --- | --- | --- | --- | --- | --- | --- | --- |
| CC(C)[C@@H]1NC(=O)[C@H](CCCCN)NC(=O)[C@@H](Cc2c[nH]c3ccccc23)NC(=O)[C@H](Cc2ccc(O)cc2)NC(=O)[C@H](C)N(C)C(=O)[C@H](Cc2ccccc2)NC1=O [Form.I-8), Cycle-(N-Me-Ala-Tyr-D-Trp-Lys-Val-Phe)] | 5.7 ± 3.9 min | 18.2 ± 3.6 min | failed to produce activity | 57 p < 0.01% | 57% | 0% |  |
| CC[C@@H](CO)NC(=O)[C@@H]1C=C2c3cccc4c3c(cn4C)C[C@H]2N(C)C1 [methysergide, methysergide bimaleate] |  |  |  |  |  |  | completely blocked |
